Measured values reported in ChEMBL document CHEMBL1142263, “Structural analogs of tylophora alkaloids may not be functional analogs” (Bioorg Med Chem Lett, 2008).
Active and inactive are the calls of the source. The calls are words filed in the database; no cut-off is given here.

Columns and labels:
[1] = Growth inhibition of human HepG cells; type: functional
[2] = tested on: PANC-1; assay: Growth inhibition of human PANC1 cells; type: functional
[3] = tested on: CCRF-CEM; assay: Growth inhibition of human CEM cells; type: functional
[4] = Inhibition of NF-kappaB-mediated transcription in human HepG cells; type: cell-based
[5] = Inhibition of CRE-mediated transcription in human HepG cells; type: cell-based
[6] = Inhibition of AP1-mediated transcription in human HepG cells; type: cell-based
[7] = Inhibition of GRE-mediated transcription in human HepG cells; type: cell-based
[8] = tested on: HepG; assay: Inhibition of DNA synthesis in human HepG cells; type: functional, cell-based
[9] = tested on: HepG; assay: Inhibition of protein synthesis in human HepG cells; type: functional, cell-based
[10] = Ratio of IC50 for NF-kappaB-mediated transcription in human HepG cells to GI50 for human HepG2 cells; type: functional
[11] = Ratio of IC50 for CRE-mediated transcription in human HepG cells to GI50 for human HepG2 cells; type: functional
[12] = Ratio of IC50 for AP1-mediated transcription in human HepG cells to GI50 for human HepG2 cells; type: functional
[13] = Ratio of IC50 for GRE-mediated transcription in human HepG cells to GI50 for human HepG2 cells; type: functional
[14] = tested on: HepG; assay: Inhibition of RNA synthesis in human HepG cells; type: functional, cell-based

Compound | GI50 [1] | GI50 [2] | GI50 [3] | IC50 [4] | IC50 [5] | IC50 [6] | IC50 [7] | Activity [8] | Activity [9] | Ratio [10] | Activity [11] | Activity [12] | Activity [13] | Activity [14] | Activity [10]
COc1ccc2c3c(c4cc(OC)c(OC)cc4c2c1)CC1CCCCN1C3 (racemic) | 1.5 nM | 0.5 nM | 2 nM | 1.4 nM | 25 nM | 18.6 nM | 10 nM |  |  |  |  |  |  |  | 
COc1ccc2c(CN3CCCC[C@H]3CO)cc3cc4c(cc3c2c1)OCO4 | 3100 nM | 2300 nM | 1600 nM | 10200 nM | 18500 nM | 10000 nM | 20700 nM |  |  |  |  |  |  |  | 
COc1ccc2c3c(c4cc5c(cc4c2c1)OCO5)C[C@H]1CCCN1C3 | 371 nM | 156 nM | 323 nM | 1240 nM | 2570 nM | 3380 nM | 2440 nM | Dose-dependent effect | Active |  |  |  |  |  | 
COc1ccc2c3c(c4cc(OC)c(OC)cc4c2c1)C[C@H]1CCCN1C3 [(-)-ANTOFINE] | 4.9 nM | 2.2 nM | 5.2 nM | 7.3 nM | 167 nM | 135 nM | 24 nM | Dose-dependent effect | Active | 1.5 | 34 | 28 | 4.9 | inactive | 
COc1ccc2c(CN3CCCC[C@H]3C(=O)O)cc3cc4c(cc3c2c1)OCO4 | 3000 nM | 2300 nM | 1700 nM | 7000 nM | 12100 nM | 6200 nM | 7200 nM |  |  |  |  |  |  |  | 
COc1ccc2cc(C)c3cc(OC)c(OC)cc3c2c1 | > 10000 nM | > 10000 nM | > 2000 nM | > 10000 nM | > 15000 nM | > 15000 nM | > 15000 nM |  |  |  |  |  |  |  | 
COc1cc2c3c(c4cc(OC)c(OC)cc4c2cc1OC)CN1CCC[C@H]1C3 [(S)-TYLOPHORINE] | 11 nM | 12 nM | 15 nM | 41 nM | > 300 nM | > 300 nM | 229 nM |  |  |  |  |  |  |  | 
COc1ccc2c(CN3CCC[C@H]3CO)cc3cc4c(cc3c2c1)OCO4 | 5400 nM | 6200 nM | 2700 nM | 21000 nM | 24000 nM | > 30000 nM | 19000 nM | Dose-dependent effect | inactive |  |  |  |  | Active | 
COc1ccc2c(CNCCCCCO)cc3cc4c(cc3c2c1)OCO4 | 2300 nM | 2200 nM | 2000 nM | 7900 nM | 8600 nM | 8700 nM | 9200 nM |  |  |  |  |  |  |  | 
COc1ccc2c(CN3CCC[C@H]3C(=O)O)cc3cc4c(cc3c2c1)OCO4 | 8600 nM | 7400 nM | 6200 nM | 23500 nM | 25000 nM | 27000 nM | > 30000 nM |  |  |  |  |  |  |  | 
COc1cc2c3c(c4cc(OC)c(OC)cc4c2cc1OC)CN1CCC[C@@H]1C3 [TYLOPHORINE] | 33 nM | 29 nM | 67 nM | 317 nM | 7910 nM | 2260 nM | 534 nM |  |  |  |  |  |  |  | 
COc1ccc2cc(C[C@H]3CCCCN3)c3cc(OC)c(OC)cc3c2c1 | 1720 nM | 904 nM | 567 nM | 2170 nM | 12000 nM | 9780 nM | 4500 nM | Dose-dependent effect | Dose-dependent effect |  | 7 | 5.7 | 2.6 | Dose-dependent effect | 1.3
